Laboratory results: patent publication US9072293B2, “Cyclopropenes and method for applying cyclopropenes to agricultural products or crops” (Erum Biotechnologies Inc., priority 2010, dated 2015)
Values joined by “and” are separate entries in the source; they are usually repeats but may differ in a detail not shown here. Equal values may be shown once.

How the values were obtained:
tomato [1] = experiment: Experimental Example 1: Efficacy test on tomato using emulsion (reddening grade); format: in vivo; conditions: individual tomatoes n=4
Method: In situ, a 1.0 mM 1-octylcyclopropene formulation was prepared using (trans)-1-octyl-1-(methanesulfonyloxy)-2-(trimethylsilyl)cyclopropane of Preparation Example 10 in the same manner as in Example 7. This solution was diluted to 1 to 100 times prior to use, as necessary. Experimental Example 1: Efficacy test on tomato using emulsion 1.0 mM formulations of five agents such as 1-(2-phenylethyl)cyclopropene, 1-(3-phenylpropyl)cyclopropene, 1-(4-phenylbutyl)cyclopropene, 1-(5-phenylpentyl)cyclopropene and 1-hexylcyclopropene were prepared in the same manner as in Example 1, and 1.0 mM and 100 μM solutions were prepared therefrom. Then, the effects of the solutions were compared with non-treated groups and control groups in which a surfactant or a stabilizing agent (sodium dodecylbenzenesulfonate or tristyrenylphenykethoxy)12ethanol) is dissolved.
Tomatoes whose top end began to turn pink were screened, harvested and divided into 12 groups (n=4) in total, i.e., non-treated groups, control groups (surfactant) and agent groups with different concentrations such as 100 μM and 1.0 mM. Tomatoes were treated with the prepared agent formulation using a household sprayer such that the surface thereof was saturated. The tomatoes were stood at room temperature (25-30° C.) for 3 days and a reddening level thereof was evaluated based on grades of 0 to 5.
(§1) At this time, the tops of tomatoes most early turned red, while the bottoms thereof most lately turned red. For this reason, in order to accurately evaluate the difference in reddening, the coloring evaluated was based on the area of red color, rather than the color of tomatoes. […] Accordingly, the grade level is proportional to the rate at which the tomatoes ripened.

[2] = Relative chemical stability of cyclopropenes measured by 1H-NMR; format: physicochemical
Description: A variety of analysis methods can be used to analyze the derivatives of Formula 6, since the absorbance of cyclopropenes containing an aryl group can be easily measured in the UV range. It can be confirmed that the chemical stability of the derivatives increases, when the length of chains to link an aryl ring to a cyclopropene ring is 2 or more. […] It is supposed that the stability of cyclopropenes increase due to the fact that π electrons of aryl groups affect π electrons of cyclopropenes.
The following Table 1 summarizes the relative chemical stability of cyclopropenes having a chain length of 2, 3, 4 or 5, based on the chemical stability of cyclopropenes having a chain length of 1. In the case of cyclopropene having a chain length of 1, the structure thereof can be confirmed via ^1H-NMR within one hour following synthesis (degraded to a level of 50% or more within one hour at 30° C.). In the case of cyclopropene having a chain length of zero, synthesis thereof was attempted in accordance with the present invention, but was impossible by a conventional method. Meanwhile, in the case of cyclopropenes having a chain length of 2 or more, the structure thereof can be precisely confirmed by ^1H-NMR as well as ^13C-NMR. The stability of these cyclopropenes was measured by ^1H-NMR while NMR cells (CDCl3) were stored at −20° C. or room temperature. In particular, cyclopropenes having chains of 3 or more were so stable that their half-life reached 5 days or longer at −20° C. or lower. In ^1H-NMR analysis, the stability was evaluated by comparing integral values at 4 to 6.5 ppm (1H) and 0.8 to 0.9 ppm (2H), characteristic peaks of 1-alkylcyclopropenes, using a small amount of 1,1,3,3-tetramethylurea (2.80 ppm) as an internal standard. Furthermore, the stability was also qualitatively evaluated by comparing integral value of the peak newly generated adjacent to the peak of the olefin proton of cyclopropene ring, as a 1-alkylcyclopropene compound is decomposed.

tomato [3] = experiment: Experimental Example 2: Efficacy test on tomato using oil based formulation (reddening grade); format: in vivo; parameters: key: an area in which the surface of tomato was colored in pink was 10% or less; an area in which the surface of tomato was completely colored in red was 10 to 40%; 2: an area in which the surface of tomato was completely colored in red was 40 to 70%; 3: an area in which the surface of tomato was completely colored in red was 70% or more and the bottom area remained green; 4: an area in which the surface of tomato was most colored in red and only a part of (0 to 10%) the bottom area remained green; 5: the surface of tomato did not entirely color in green; conditions: 1.0 mM oil-based formulation, individual tomatoes n=4
Description: as §1
As illustrated in Example 1, in situ, in accordance with the methods of Preparation Examples 15, 16, 17, 18 and 22, five agents (1.0 mmol) such as 1-(2-phenylethyl)cyclopropene, 1-(3-phenylpropyl)cyclopropene, 1-(4-phenylbutyl)cyclopropene, 1-(5-phenylpentyl)cyclopropene and 1-hexylcyclopropene were prepared, 5.0 ml of xylene and 5.0 ml of water were added to the reaction solution, vigorously stirred for 5 minutes and stood. When the mixture was separated into an organic layer (upper layer) and an aqueous layer (lower layer), only the organic layer was collected and the aqueous layer was discarded. […] of hexane was added to the organic layer and homogeneously mixed to prepare a 1.0 mM oil-based formulation.
The tomatoes were screened in the same manner as in Experimental Example 1 and divided into 7 groups (n=4) including a non-treated group, a control group (solvent-treated group) and 5 agent groups. Tomatoes were treated with the previously prepared agent using a household sprayer such that the surface thereof was saturated. The tomatoes were stood at room temperature (25-30° C.) for 3 days and a reddening level thereof was evaluated based on grades of 0 to 5.

C1=C(CCc2ccccc2)C1 [(2-Phenylethyl), 1-(2-phenylethyl)cyclopropene]
reddening level (grade 0 to 5) (tomato [1]; 100 μM, Day 0, room temperature (25-30° C.)): 0 (an area in which the surface of tomato was colored in pink was 10% or less) (2×) and 1 (an area in which the surface of tomato was completely colored in red was 10 to 40%) and 2 (an area in which the surface of tomato was completely colored in red was 40 to 70%) | reddening level (grade 0 to 5) (tomato [1]; 100 μM, Day 1, room temperature (25-30° C.)): 1 (an area in which the surface of tomato was completely colored in red was 10 to 40%) (2×) and 3 (an area in which the surface of tomato was completely colored in red was 70% or more and the bottom area remained green) (2×) | reddening level (grade 0 to 5) (tomato [1]; 100 μM, Day 2, room temperature (25-30° C.)): 2 (an area in which the surface of tomato was completely colored in red was 40 to 70%) and 3 (an area in which the surface of tomato was completely colored in red was 70% or more and the bottom area remained green) and 4 (2×) | reddening level (grade 0 to 5) (tomato [1]; 100 μM, Day 3, room temperature (25-30° C.)): 3 (an area in which the surface of tomato was completely colored in red was 70% or more and the bottom area remained green) and 4 and 5 (2×) | reddening level (grade 0 to 5) (tomato [1]; 1.0 mM, Day 0, room temperature (25-30° C.)): 0 (an area in which the surface of tomato was colored in pink was 10% or less) (2×) and 1 (an area in which the surface of tomato was completely colored in red was 10 to 40%) and 2 (an area in which the surface of tomato was completely colored in red was 40 to 70%) | reddening level (grade 0 to 5) (tomato [1]; 1.0 mM, Day 1, room temperature (25-30° C.)): 1 (an area in which the surface of tomato was completely colored in red was 10 to 40%) (2×) and 2 (an area in which the surface of tomato was completely colored in red was 40 to 70%) and 3 (an area in which the surface of tomato was completely colored in red was 70% or more and the bottom area remained green) | reddening level (grade 0 to 5) (tomato [1]; 1.0 mM, Day 2, room temperature (25-30° C.)): 2 (an area in which the surface of tomato was completely colored in red was 40 to 70%) (2×) and 3 (an area in which the surface of tomato was completely colored in red was 70% or more and the bottom area remained green) and 4 | reddening level (grade 0 to 5) (tomato [1]; 1.0 mM, Day 3, room temperature (25-30° C.)): 3 (an area in which the surface of tomato was completely colored in red was 70% or more and the bottom area remained green) (2×) and 4 and 5 | chemical stability (in words) [2]: considerably stable | Stability (relative chemical stability, based on cyclopropenes having a chain length of 1) ([2]; 1H-NMR, CDCl3, stored at −20° C. or room temperature, relative to chain length 1): >10 | Tomato results: reddening level (grade 0 to 5) (tomato [3]; Day 0, room temperature (25-30° C.)): 0 (an area in which the surface of tomato was colored in pink was 10% or less) (2×) and 1 (an area in which the surface of tomato was completely colored in red was 10 to 40%) and 2 (an area in which the surface of tomato was completely colored in red was 40 to 70%) | Tomato results: reddening level (grade 0 to 5) (tomato [3]; Day 1, room temperature (25-30° C.)): 1 (an area in which the surface of tomato was completely colored in red was 10 to 40%) (2×) and 2 (an area in which the surface of tomato was completely colored in red was 40 to 70%) and 3 (an area in which the surface of tomato was completely colored in red was 70% or more and the bottom area remained green) | Tomato results: reddening level (grade 0 to 5) (tomato [3]; Day 2, room temperature (25-30° C.)): 2 (an area in which the surface of tomato was completely colored in red was 40 to 70%) (2×) and 4 (2×) | Tomato results: reddening level (grade 0 to 5) (tomato [3]; Day 3, room temperature (25-30° C.)): 4 (2×) and 5 (2×)
